# Patent US10487092B2, “Pyrazolopyridinamines as MKNK1 and MKNK2 inhibitors” (BAYER PHARMA AKTIENGESELLSCHAFT, priority 2014, dated 2019)
# Target: human full-length MKNK1 (Homo sapiens (Human), UniProt Q9BUB5, T344D)
# Test: MKNK1 kinase high ATP assay (TR-FRET)
# Format: biochemical
# Conditions: high ATP (2 mM), 15 min preincubation with enzyme; read-out: MKNK1 IC50
# How it was run: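 GST-tagged full-length MKNK1 (aa 1–424, T344D; insect-cell expressed) preincubated 15 min with compound, then reacted 30 min at 22 °C with 2 mM ATP and 0.06 μM biotinylated peptide (final) in HEPES pH 7.5 buffer. Phosphopeptide detected by TR-FRET 665/620 ratio, normalized to no-inhibitor and no-enzyme controls.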
# human full-length MKNK1, sequence (Q9BUB5 other isoform, or with tags, fused parts or gaps T344D): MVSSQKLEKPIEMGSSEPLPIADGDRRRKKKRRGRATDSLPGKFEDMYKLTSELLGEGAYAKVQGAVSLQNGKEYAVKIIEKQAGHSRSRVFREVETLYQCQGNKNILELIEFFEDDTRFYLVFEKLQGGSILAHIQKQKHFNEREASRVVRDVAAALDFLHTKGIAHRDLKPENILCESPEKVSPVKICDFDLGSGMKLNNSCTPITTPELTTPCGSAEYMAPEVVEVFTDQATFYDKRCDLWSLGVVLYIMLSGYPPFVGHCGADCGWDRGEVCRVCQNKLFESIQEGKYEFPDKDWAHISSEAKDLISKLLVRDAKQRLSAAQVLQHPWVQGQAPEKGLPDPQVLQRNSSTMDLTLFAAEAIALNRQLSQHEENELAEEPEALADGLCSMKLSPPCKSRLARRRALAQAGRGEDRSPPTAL
row,Compound,IC50 [nM]
1,"CCN(CCOC)C(=O)[C@H]1CCc2c(sc3ncnc(Nc4cc5ccnn5cc4OC)c23)C1 [Example 118, (7S)—N-Ethyl-N-(2-methoxyethyl)-4-[(6-methoxypyrazolo[1,5-a]pyridin-5-yl)amino]-5,6,7,8-tetrahydro[1]benzothieno[2,3-d]pyrimidine-7-carboxamide]",1
2,"COCCN(CCOC)C(=O)[C@H]1CCc2c(sc3ncnc(Nc4cc5ccnn5cc4OC)c23)C1 [Example 119, (7S)—N,N-Bis(2-methoxyethyl)-4-[(6-methoxypyrazolo[1,5-a]pyridin-5-yl)amino]-5,6,7,8-tetrahydro[1]benzothieno[2,3-d]pyrimidine-7-carboxamide]",< 1
3,"COc1cn2nccc2cc1Nc1ncnc2sc3c(c12)CC[C@H](C(=O)N(C)C(C)(C)C)C3 [Example 120, (7S)—N-tert-Butyl-4-[(6-methoxypyrazolo[1,5-a]pyridin-5-yl)amino]-N-methyl-5,6,7,8-tetrahydro[1]benzothieno[2,3-d]pyrimidine-7-carboxamide]",5
4,"COc1cn2nccc2cc1Nc1ncnc2sc3c(c12)CC[C@H](C(=O)N1C[C@@H]2C[C@H]1CN2C)C3 [Example 121, (7S)-4-[(6-Methoxypyrazolo[1,5-a]pyridin-5-yl)amino]-5,6,7,8-tetrahydro[1]benzothieno[2,3-d]pyrimidin-7-yl[(1S,4S)-5-methyl-2,5-diazabicyclo[2.2.1]hept-2-yl]methanone]",1
5,"COc1cn2nccc2cc1Nc1ncnc2sc3c(c12)CC[C@H](C(=O)N1C[C@H]2C[C@@H]1CN2C)C3 [Example 122, (7S)-4-[(6-Methoxypyrazolo[1,5-a]pyridin-5-yl)amino]-5,6,7,8-tetrahydro[1]benzothieno[2,3-d]pyrimidin-7-yl[(1R,4R)-5-methyl-2,5-diazabicyclo[2.2.1]hept-2-yl]methanone]",< 1
6,"COc1cn2nccc2cc1Nc1ncnc2sc3c(c12)CC[C@H](C(=O)N1C[C@@H]2C[C@H]1CO2)C3 [Example 123, (7S)-4-[(6-Methoxypyrazolo[1,5-a]pyridin-5-yl)amino]-5,6,7,8-tetrahydro[1]benzothieno[2,3-d]pyrimidin-7-yl[(1S,4S)-2-oxa-5-azabicyclo[2.2.1]hept-5-yl]methanone]",2
7,"COc1cn2nccc2cc1Nc1ncnc2sc3c(c12)CC[C@H](C(=O)N1C[C@H]2C[C@@H]1CO2)C3 [Example 124, (7S)-4-[(6-Methoxypyrazolo[1,5-a]pyridin-5-yl)amino]-5,6,7,8-tetrahydro[1]benzothieno[2,3-d]pyrimidin-7-yl[(1R,4R)-2-oxa-5-azabicyclo[2.2.1]hept-5-yl]methanone]",1
8,"COc1cn2nccc2cc1Nc1ncnc2sc3c(c12)CC[C@H](C(=O)N1CCOC[C@H]1C)C3 [Example 126, (7S)-4-[(6-Methoxypyrazolo[1,5-a]pyridin-5-yl)amino]-5,6,7,8-tetrahydro[1]benzothieno[2,3-d]pyrimidin-7-yl[(3R)-3-methylmorpholin-4-yl]methanone]",1
9,"(7S)-4-[(6-Chloropyrazolo[1,5-a]pyridin-5-yl)amino]-5,6,7,8-tetrahydro[1]benzothieno[2,3-d]pyrimidin-7-yl(4-[2-dimethylamino)ethyl](methyl)aminopiperidin-1-yl)methanone [Example 62]",6
